This is an account of results in US4310521A, “Aspirin-isopropylantipyrine” (Toho Pharmaceutical Co., Ltd., priority 1979, dated 1982).

One data set concerns male mice. In words: Acute toxicity (LD 50). The format is in vivo. To be noted: male ddy mice, in words. The protocol: (§1) The acute toxicity of AIA was tested using male mice (ddy, body weight 18-25 g), and the dose at which 50% of the animal population were killed (LD 50) was determined.
Another data set can be described thus: Acute toxicity (LD 50). The note with it: mouse, in vivo, male ddy mice. The format is in vivo. Here is the method:
as §1

Data set [1] relates to stomach, glandular portion. In words: Gastric ulcerogenic activity, adjuvant-administered rats. The class given is in vivo. The note with it: oral, 200 mg/kg per day, 21 days, control 0.05 ± 0.048, *P < 0.05. Here is the method:
On the other hand, after administering an adjuvant, the rats were orally administered […] of the test compounds per day for 21 days. On the 21st day the stomachs were removed, and the lengths of the lesions in the glandular portion were measured.

Data set [2] can be described thus: Hygroscopicity and stability. The format is physicochemical. To be noted: in words, no test described; listed as formula (I).
For the next data set, the system named is rats (E. coli pyrogen). Nature of the data set: Antipyretic activity, E. coli suspension as pyrogen. The class given is in vivo. The note with it: s.c., 100 mg/kg, 2 hours after pyrogen. The protocol:
Rats received a sterilized E. coli suspension (1 platinum loop/2 ml saline, 0.5 ml/100 g, i.v.) as a pyrogen, and 2 hours later the test compounds were injected subcutaneously. The temperature was taken at hourly intervals before and after injection of the test compounds.

In data set [3] the test system is excised intestinal tract of rats. In words: Inhibition of induced contraction of excised intestinal tract. To be noted: 100 μg/ml.
The subject of data set [4] is stomach, glandular portion. In words: Gastric ulcerogenic activity, pylorus-ligated rats. The note with it: for Length of Stomach Lesion (cm): pylorus-ligated rats, oral, 100 mg/kg, 7 hours. The format is in vivo. Here is the method:
Immediately after ligation of the pylorus of fasted rats, the test compounds were administered orally. The stomachs were removed 7 hours later, and the lengths of the lesions in the glandular portion were measured.

For data set [5], the system named is mouse tail (pain threshold, heat). Nature of the data set: Prolongation time of pain threshold of mouse tail, D'Amour-Smith Method (analgetic activity). The class given is in vivo. The note with it: mice, s.c., 200 mg/kg AIA vs 200 mg/kg aspirin, FIG. 1. The protocol:
Further, the prolongation time of pain threshold of mouse tail was determined in accordance with the D'Amour-Smith Method (J. Pharmacol. Exp. Ther., 72, 74 (1941)). After the subcutaneous administration of the test compounds to mice, the tails of mice were exposed to heat and the prolongation time of pain threshold was determined.

A short description of a further data set: Solubility. The class given is physicochemical.
The next data set deals with adjuvant arthritis. In words: Adjuvant arthritis (anti-inflammatory activity). The note with it: rats, 200 mg/kg per day, 21 days, FIG. 3, in words. The class given is in vivo. Here is the method: On the other hand, an adjuvant was administered subcutaneously to only the foot pad of the left hind paw, and 200 mg/kg per day of the test compounds were administered daily for 21 days. The rate of increase in the volume of the both hind paws were measured daily and designated as the rate of swelling (%).

Data set [6] has as its system mice (acetic acid writhings). In words: Inhibition of acetic acid-induced writhing in mice (analgetic activity). To be noted: for No. of Writhings: 30 minutes before acetic acid i.p., control 32.2 ± 3.7; for Inhibition (%): writhing, based on the control group. The format is in vivo. Here is the method: The number of writhings that occurred when mice were administered an acetic acid solution intraperitoneally were counted, and the rate of inhibition based on the control group was calculated. The test compounds were administered to the mice 30 minutes before the acetic acid solution was administered.

For another data set, the system named is carrageenin edema. Nature of the data set: Carrageenin edema of hind paw (anti-inflammatory activity). The class given is in vivo. To be noted: rats, s.c., 50 and 100 mg/kg, FIG. 2, in words. Here is the method:
Rats were subcutaneously administered the test compounds, and 30 minutes later a carrageenin solution was administered subcutaneously to the foot pad of the rats. The volume of the hind paw was measured at prescribed intervals after the administration of the carrageenin, and the rate of increase in the volume of the paw was calculated and designated as the rate of swelling (%).
(In general: The carrageenan paw model is a standard test of acute inflammation.)

The conditions of data set [7]: background statement on aspirin; cited from earlier work.
[8] abbreviates: ip, intraperitoneal, read-out: LD 50 (g/kg), Intraperitoneal administration.
[9] abbreviates: sc, subcutaneous, read-out: LD 50 (g/kg), Subcutaneous administration.
Setting [10] is: oral, read-out: LD 50 (g/kg), Oral administration.

“Also recorded” adds a separate entry of the source. Like-named read-outs stand apart in the source and are kept apart here.

As to `CC(=O)Oc1ccccc1C(=O)NCc1c(C(C)C)c(=O)n(-c2ccccc2)n1C` [AIA, N-3'a-propylphenazonyl-2-acetoxybenzamide], the “Acute toxicity compared with aspirin” value with male mice is “extremely low as compared with that of aspirin”. For the same compound, the LD50 in “Acute toxicity (LD 50)” (setting [8]) was 3.67 ± 0.07 g/kg; in “Acute toxicity (LD 50)” (setting [9]), > 5 g/kg; in “Acute toxicity (LD 50)” (setting [10]), > 5 g/kg. The figures for the “Length of Stomach Lesion (cm)” value in [1] and in data set [4] were 0.04 ± 0.031 cm and 0.11 ± 0.09 cm, respectively. The Hygroscopicity entry in data set [2] is recorded as “free of hygroscopicity; also recorded: not hygroscopic”. Besides, the Stability entry in data set [2] is “stable; also recorded: good stability”. For the same compound, the Antipyretic activity entry in the data set with rats (E. coli pyrogen) is reported as “demonstrated antipyretic activity”. The “Inhibition of contraction induced by acetylcholine” value in [3] (acetylcholine) was “inhibit the contraction”. Besides, in data set [3] (barium chloride), the “Inhibition of contraction induced by barium chloride” value is on record as “inhibit the contraction”. The “Inhibition of contraction induced by histamine” value in [3] (histamine) is on record as “inhibit the contraction”. Also, the “Injury to the stomach (Tables 2A and 2B)” value in data set [4] (rats, in words, Tables 2A and 2B) is on record as “little or no injury is caused to the stomach”. Also, in data set [5], the “Analgetic activity (prolongation of pain threshold) compared with aspirin” value is “stronger analgetic activity than the group administered 200 mg/kg of aspirin”. Also, the Solubility in acetone entry in “Solubility” (acetone) is given as “dissolves readily”. In “Solubility” (chloroform), the Solubility in chloroform result is listed as “dissolves fairly well”. Moreover, in “Solubility” (ethanol), the Solubility in ethanol entry is reported as “dissolves readily”. Besides, the Solubility in methanol entry in the data set “Solubility” (methanol) is given as “dissolves readily”. For the same compound, in “Solubility” (water), the Solubility in water entry is “practically insoluble”. The “Inhibitory effect on adjuvant arthritis compared with aspirin” value with adjuvant arthritis is “inhibitory effect on adjuvant arthritis comparable to that of aspirin”. In addition, the “No. of Writhings” value in [6] (50 mg/kg) is on record as 22.1 ± 3.3; in data set [6] (100 mg/kg), 18.3 ± 1.7. In addition, the entries for the “Inhibition (%)” value in data set [6] (50 mg/kg) and in data set [6] (100 mg/kg) were 31.4% and 43.2%, respectively. The “Analgetic activity (writhing) compared with aspirin” value in [6] (in words) is recorded as “analgetic activity comparable to that of aspirin”. Also, the “Inhibition of carrageenin edema formation” value with carrageenin edema is given as “has the activity of inhibiting carrageenin edema formation”.
For `CC(=O)Oc1ccccc1C(=O)O` [Aspirin, acetylsalicylic acid], the LD50 worked out at 0.76 ± 0.09 g/kg in the data set “Acute toxicity (LD 50)” (setting [8]), 1.02 ± 0.11 g/kg in “Acute toxicity (LD 50)” (setting [9]) and 11.6 ± 0.07 g/kg in “Acute toxicity (LD 50)” (setting [10]). Besides, the “Length of Stomach Lesion (cm)” value in data set [1] was found to be 3.29 ± 1.37 cm; in data set [4] it was 4.13 ± 1.24 cm. Also, the Hygroscopicity entry in [7] is “hygroscopic”. Besides, the “No. of Writhings” value turned out to be 17.2 ± 4.0 in data set [6] (50 mg/kg) and 15.3 ± 2.4 in [6] (100 mg/kg). The “Inhibition (%)” value was found to be 46.6% in data set [6] (50 mg/kg) and 52.5% in data set [6] (100 mg/kg).
